In paper PMC11448502, “Cryo-EM structures of the human P2X1 receptor reveal subtype-specific architecture and antagonism by supramolecular ligand-binding” (Nature Communications, 2024):
Where “and” joins values, the source holds several entries; their conditions need not be identical. Equal entries are not always repeated. Where two headings read alike, the source gives them in different places.

How the values were obtained:
hP2X1 WT = molecular target: T1, hP2X1 WT (Homo sapiens, UniProt P51575); assay: NF449 inhibition dose response (IC50), TEVC in oocytes; assay type: cell-based
T1 construct: hP2X1 mRNA that was made from linearized full-length wild-type or mutant pcDNA 3.1x; expressed in transfected cells; host or cells: Xenopus laevis oocytes (mRNA injection)
T1 sequence (P51575 1-399): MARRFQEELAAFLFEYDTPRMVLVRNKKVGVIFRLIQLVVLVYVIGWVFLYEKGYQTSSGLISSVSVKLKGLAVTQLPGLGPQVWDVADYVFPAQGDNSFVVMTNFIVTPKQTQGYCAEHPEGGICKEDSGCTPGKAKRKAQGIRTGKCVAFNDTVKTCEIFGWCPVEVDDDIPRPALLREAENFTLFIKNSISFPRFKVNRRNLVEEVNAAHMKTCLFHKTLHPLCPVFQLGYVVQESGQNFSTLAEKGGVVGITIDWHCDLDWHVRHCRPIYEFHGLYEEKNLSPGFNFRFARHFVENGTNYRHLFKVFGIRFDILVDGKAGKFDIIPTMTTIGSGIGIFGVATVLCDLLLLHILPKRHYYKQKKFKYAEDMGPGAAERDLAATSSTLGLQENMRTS
Description: Oocytes were purchased defolliculated from Ecocyte Bioscience in Barth’s Solution (88 mM NaCl, 1 mM KCl, 0.82 mM MgSO4, 0.33 mM Ca(NO3)2, 0.41 mM CaCl2, 2.4 mM NaHCO3, 5 mM Tris-HCl) supplemented with penicillin (100 U/mL) and streptomycin (100 µg/mL). Xenopus laevis oocytes were then injected with 50 nL of 100 ng/μL hP2X1 mRNA that was made from linearized full-length wild-type or mutant pcDNA 3.1x according to the protocol provided in the mMessage mMachine kit (Invitrogen). Injected oocytes were allowed to express for ~20 hours at 18 °C before recording was performed.
Data acquisition was performed using the Oocyte Clamp OC-725C amplifier and pClamp 8.2 software. Buffers were applied using a gravity fed RSC-200 Rapid Solution Changer that flows at ~5 mL/min. All experiments use Sutter filamented glass 10 cm in length with an inner diameter of 0.69 mm and an outer diameter of 1.2 mm to impale oocytes and clamp the holding voltage at −60 mV. Experiments were recorded in buffer containing 10 mM HEPES (pH 7.4), 140 mM NaCl, 5 mM KCl, 2 mM CaCl2, 2 mM MgCl2, and 10 mM glucose.
To test a dilution series of an antagonist at discrete concentrations, 10 µM ATP (2 mM ATP for K309A only) was first applied to evoke an initial maximum current. The oocyte was then washed with buffer for one minute, followed by one minute application of an antagonist test-concentration, and concluded by co-application of the same test concentration with 10 µM ATP (2 mM ATP for K309A). The antagonized signal was then normalized against the initial ATP excitatory signal. Each test concentration was performed in triplicate across different oocytes. The data was then fit to a nonlinear regression named “[inhibitor] vs. response – Variable slope (four parameters)” in Prism 9 to produce a sigmoidal curve and afford an IC50 value. Each singular condition was used to generate an average which is reported plus or minus its standard deviation between three discrete trials.

P2X7 receptor = molecular target: P2X7 receptor; set-up: method as in PMID 33125712, PMID 18657557; conditions: read-out: apparent affinity for ATP, cited from earlier work

Q: With O=C(Nc1cc(C(=O)Nc2ccc(S(=O)(=O)O)cc2S(=O)(=O)O)cc(C(=O)Nc2ccc(S(=O)(=O)O)cc2S(=O)(=O)O)c1)Nc1cc(C(=O)Nc2ccc(S(=O)(=O)O)cc2S(=O)(=O)O)cc(C(=O)Nc2ccc(S(=O)(=O)O)cc2S(=O)(=O)O)c1 [NF449, 4,4’,4”,4’’’-(carbonylbis(imino-5,1,3-benzenetriylbis(carbonylimino)))tetrakis-benzene-1,3-disulfonic acid] as the compound, how does the “Normalized Current” value (hP2X1 WT; [NF449] 1.600E-10 M) read?
A: 0.9675 and 0.945 and 0.9562

Q: And the “Normalized Current” value (hP2X1 WT; [NF449] 3.200E-11 M)?
A: 1.007 and 0.9213 and 1.004

Q: What about the “Normalized Current” value (hP2X1 WT; [NF449] 6.400E-12 M) of the same compound?
A: 1.049 and 0.9637 and 0.9878

Q: What about the “Normalized Current” value (hP2X1 WT; [NF449] 8.000E-10 M) of the same compound?
A: 0.5214 and 0.4548 and 0.5008

Q: Which EC50 (P2X7 receptor) does the source give for Nc1ncnc2c1ncn2[C@@H]1O[C@H](COP(=O)(O)OP(=O)(O)OP(=O)(O)O)[C@@H](O)[C@H]1O [ATP] here?
A: > 100 µM

Q: And the EC50 (P2X7 receptor; under certain conditions)?
A: > 1000 µM
